Assay results as given in the NIST ThermoML archive (doi:10.1016/j.fluid.2018.04.012).
± gives the expanded uncertainty stated by the source.

Experiment: xn = mol fraction of the nth substance listed
Conditions: Liquid, Vibrating tube method

CC(C)OC(C)C [diisopropyl ether] + CC(C)O
mass density [kg/m3]
Conditions | x2 = 0.1503 | x2 = 0.2979 | x2 = 0.4228 | x2 = 0.5 | x2 = 0.6737 | x2 = 0.8483
333.15 K, 130000 kPa | – | – | – | 807.2 ± 1.2 | 815.2 ± 1.2 | 824.7 ± 1.1
333.15 K, 140000 kPa | 799.3 ± 1.3 | 804.1 ± 1.3 | 808.6 ± 1.3 | 811.9 ± 1.3 | 819.7 ± 1.2 | 829.1 ± 1.2
353.19 K, 1000 kPa | 665.8 ± 0.7 | 673.2 ± 0.7 | 680.7 ± 0.7 | 685.4 ± 0.7 | 698.3 ± 0.7 | 713.7 ± 0.7
353.19 K, 5000 kPa | 673.7 ± 0.7 | 680.7 ± 0.7 | 687.7 ± 0.7 | 692.4 ± 0.7 | 704.7 ± 0.7 | 719.5 ± 0.7
353.19 K, 10000 kPa | 682.3 ± 0.8 | 689.1 ± 0.8 | 695.5 ± 0.8 | 700.2 ± 0.7 | 711.9 ± 0.7 | 726.1 ± 0.7
353.19 K, 15000 kPa | 690 ± 0.8 | 696.5 ± 0.8 | 702.7 ± 0.8 | 707.2 ± 0.8 | 718.5 ± 0.8 | 732.2 ± 0.8
353.19 K, 20000 kPa | 696.9 ± 0.8 | 703.2 ± 0.8 | 709.2 ± 0.8 | 713.6 ± 0.8 | 724.5 ± 0.8 | 737.7 ± 0.8
353.19 K, 25000 kPa | 703.3 ± 0.8 | 709.3 ± 0.8 | 715.3 ± 0.8 | 719.5 ± 0.8 | 730.1 ± 0.8 | 742.9 ± 0.8
353.19 K, 30000 kPa | 709.2 ± 0.8 | 715.1 ± 0.8 | 720.9 ± 0.8 | 725 ± 0.8 | 735.3 ± 0.8 | 747.8 ± 0.8
353.19 K, 35000 kPa | 714.7 ± 0.9 | 720.5 ± 0.9 | 726.2 ± 0.9 | 730.1 ± 0.8 | 740.2 ± 0.8 | 752.4 ± 0.8
353.19 K, 40000 kPa | 719.8 ± 0.9 | 725.4 ± 0.9 | 731.2 ± 0.9 | 734.9 ± 0.9 | 744.8 ± 0.9 | 756.7 ± 0.8
353.19 K, 45000 kPa | 724.6 ± 0.9 | 730.2 ± 0.9 | 735.9 ± 0.9 | 739.5 ± 0.9 | 749.2 ± 0.9 | 760.8 ± 0.9
353.19 K, 50000 kPa | 729.4 ± 0.9 | 734.8 ± 0.9 | 740.3 ± 0.9 | 743.9 ± 0.9 | 753.5 ± 0.9 | 764.9 ± 0.9
353.19 K, 55000 kPa | 733.7 ± 1 | 739 ± 1 | 744.5 ± 0.9 | 748 ± 0.9 | 757.3 ± 0.9 | 768.6 ± 0.9
353.19 K, 60000 kPa | 737.8 ± 1 | 743.1 ± 1 | 748.6 ± 1 | 752 ± 1 | 761.1 ± 0.9 | 772.2 ± 0.9
353.19 K, 65000 kPa | 741.9 ± 1 | 747.1 ± 1 | 752.5 ± 1 | 755.8 ± 1 | 764.9 ± 1 | 775.8 ± 0.9
353.19 K, 70000 kPa | 745.7 ± 1 | 750.9 ± 1 | 756.2 ± 1 | 759.5 ± 1 | 768.4 ± 1 | 779.2 ± 1
353.19 K, 80000 kPa | 752.9 ± 1.1 | 758 ± 1.1 | 763.2 ± 1.1 | 766.3 ± 1.1 | 775 ± 1 | 785.5 ± 1
353.19 K, 90000 kPa | 759.7 ± 1.1 | 764.7 ± 1.1 | 769.7 ± 1.1 | 772.8 ± 1.1 | 781.4 ± 1.1 | 791.6 ± 1
353.19 K, 100000 kPa | 766 ± 1.2 | 770.8 ± 1.2 | 775.8 ± 1.2 | 778.9 ± 1.1 | 787.2 ± 1.1 | 797.2 ± 1.1
353.19 K, 110000 kPa | 772 ± 1.2 | 776.8 ± 1.2 | 781.5 ± 1.2 | 784.7 ± 1.2 | 792.9 ± 1.2 | 802.7 ± 1.1
353.19 K, 120000 kPa | 777.6 ± 1.3 | 782.3 ± 1.3 | 786.9 ± 1.2 | 790.1 ± 1.2 | 798.1 ± 1.2 | 807.7 ± 1.2
353.19 K, 130000 kPa | 782.9 ± 1.3 | 787.6 ± 1.3 | 792.1 ± 1.3 | 795.2 ± 1.3 | 803.1 ± 1.2 | 812.6 ± 1.2
353.19 K, 140000 kPa | 788.1 ± 1.4 | 792.7 ± 1.3 | 797 ± 1.3 | 800.2 ± 1.3 | 808 ± 1.3 | 817.4 ± 1.2
373.24 K, 1000 kPa | 641 ± 0.7 | 648.3 ± 0.7 | 655.6 ± 0.7 | 660.4 ± 0.7 | 673.6 ± 0.7 | 689.6 ± 0.7
373.24 K, 5000 kPa | 650.7 ± 0.7 | 657.5 ± 0.7 | 664.2 ± 0.7 | 669 ± 0.7 | 681.4 ± 0.7 | 696.7 ± 0.7
373.24 K, 10000 kPa | 661 ± 0.8 | 667.6 ± 0.8 | 673.7 ± 0.8 | 678.3 ± 0.8 | 690.1 ± 0.8 | 704.5 ± 0.7
373.24 K, 15000 kPa | 670 ± 0.8 | 676.2 ± 0.8 | 682.1 ± 0.8 | 686.6 ± 0.8 | 697.9 ± 0.8 | 711.6 ± 0.8
373.24 K, 20000 kPa | 678.1 ± 0.8 | 684.1 ± 0.8 | 689.7 ± 0.8 | 694 ± 0.8 | 704.8 ± 0.8 | 718 ± 0.8
373.24 K, 25000 kPa | 685.3 ± 0.8 | 691.1 ± 0.8 | 696.6 ± 0.8 | 700.8 ± 0.8 | 711.2 ± 0.8 | 724 ± 0.8
373.24 K, 30000 kPa | 692 ± 0.9 | 697.6 ± 0.8 | 703 ± 0.8 | 707 ± 0.8 | 717.1 ± 0.8 | 729.5 ± 0.8
373.24 K, 35000 kPa | 698.1 ± 0.9 | 703.6 ± 0.9 | 708.9 ± 0.9 | 712.8 ± 0.9 | 722.6 ± 0.9 | 734.7 ± 0.8
373.24 K, 40000 kPa | 703.9 ± 0.9 | 709.2 ± 0.9 | 714.5 ± 0.9 | 718.1 ± 0.9 | 727.8 ± 0.9 | 739.6 ± 0.9
373.24 K, 45000 kPa | 709.2 ± 0.9 | 714.5 ± 0.9 | 719.6 ± 0.9 | 723.3 ± 0.9 | 732.7 ± 0.9 | 744.3 ± 0.9
373.24 K, 50000 kPa | 714.2 ± 1 | – | – | – | – | –
